{"source": "the kinase profiling compilation of Christmann-Franck et al. (2016)", "assay_in_all_cases": "radiometric filter-binding kinase assay, Kinase HotSpot", "conditions_in_all_cases": "compound 0.5 µM; ATP 10 µM", "key": {"CDC42BPA (human)": {"target": "CDC42BPA (human) (UniProt Q5VT25)"}, "EPHB1 (human)": {"target": "EPHB1 (human) (UniProt P54762)", "sequence (P54762 whole entry, looked up)": "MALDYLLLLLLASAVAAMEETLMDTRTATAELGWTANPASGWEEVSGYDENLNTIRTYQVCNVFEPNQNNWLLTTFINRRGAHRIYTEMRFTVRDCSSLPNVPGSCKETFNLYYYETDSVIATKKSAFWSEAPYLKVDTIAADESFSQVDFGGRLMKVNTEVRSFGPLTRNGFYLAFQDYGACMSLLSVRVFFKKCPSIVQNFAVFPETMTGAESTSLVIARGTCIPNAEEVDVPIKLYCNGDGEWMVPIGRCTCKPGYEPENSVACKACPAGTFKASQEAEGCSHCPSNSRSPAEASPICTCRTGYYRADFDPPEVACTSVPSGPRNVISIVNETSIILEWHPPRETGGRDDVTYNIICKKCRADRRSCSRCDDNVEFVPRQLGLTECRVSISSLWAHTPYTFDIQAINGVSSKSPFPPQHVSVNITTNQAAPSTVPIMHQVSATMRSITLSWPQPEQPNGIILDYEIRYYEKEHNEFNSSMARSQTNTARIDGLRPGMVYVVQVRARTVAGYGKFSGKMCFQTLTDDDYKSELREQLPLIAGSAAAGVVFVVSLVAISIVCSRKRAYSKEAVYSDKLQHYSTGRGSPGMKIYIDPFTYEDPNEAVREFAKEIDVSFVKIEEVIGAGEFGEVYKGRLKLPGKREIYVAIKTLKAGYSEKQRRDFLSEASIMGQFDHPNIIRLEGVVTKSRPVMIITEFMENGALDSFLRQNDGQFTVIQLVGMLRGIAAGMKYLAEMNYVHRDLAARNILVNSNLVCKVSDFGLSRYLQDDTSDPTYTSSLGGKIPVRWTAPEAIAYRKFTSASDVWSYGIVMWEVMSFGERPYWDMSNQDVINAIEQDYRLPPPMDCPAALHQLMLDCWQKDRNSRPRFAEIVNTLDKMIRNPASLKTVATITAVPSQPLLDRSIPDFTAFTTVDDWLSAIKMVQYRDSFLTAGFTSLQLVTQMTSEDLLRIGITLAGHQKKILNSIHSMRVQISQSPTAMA"}, "MAP3K5 (human)": {"target": "MAP3K5 (human) (UniProt Q99683)"}, "PTK2 (human)": {"target": "PTK2 (human) (UniProt Q05397)", "sequence (Q05397 whole entry, looked up)": "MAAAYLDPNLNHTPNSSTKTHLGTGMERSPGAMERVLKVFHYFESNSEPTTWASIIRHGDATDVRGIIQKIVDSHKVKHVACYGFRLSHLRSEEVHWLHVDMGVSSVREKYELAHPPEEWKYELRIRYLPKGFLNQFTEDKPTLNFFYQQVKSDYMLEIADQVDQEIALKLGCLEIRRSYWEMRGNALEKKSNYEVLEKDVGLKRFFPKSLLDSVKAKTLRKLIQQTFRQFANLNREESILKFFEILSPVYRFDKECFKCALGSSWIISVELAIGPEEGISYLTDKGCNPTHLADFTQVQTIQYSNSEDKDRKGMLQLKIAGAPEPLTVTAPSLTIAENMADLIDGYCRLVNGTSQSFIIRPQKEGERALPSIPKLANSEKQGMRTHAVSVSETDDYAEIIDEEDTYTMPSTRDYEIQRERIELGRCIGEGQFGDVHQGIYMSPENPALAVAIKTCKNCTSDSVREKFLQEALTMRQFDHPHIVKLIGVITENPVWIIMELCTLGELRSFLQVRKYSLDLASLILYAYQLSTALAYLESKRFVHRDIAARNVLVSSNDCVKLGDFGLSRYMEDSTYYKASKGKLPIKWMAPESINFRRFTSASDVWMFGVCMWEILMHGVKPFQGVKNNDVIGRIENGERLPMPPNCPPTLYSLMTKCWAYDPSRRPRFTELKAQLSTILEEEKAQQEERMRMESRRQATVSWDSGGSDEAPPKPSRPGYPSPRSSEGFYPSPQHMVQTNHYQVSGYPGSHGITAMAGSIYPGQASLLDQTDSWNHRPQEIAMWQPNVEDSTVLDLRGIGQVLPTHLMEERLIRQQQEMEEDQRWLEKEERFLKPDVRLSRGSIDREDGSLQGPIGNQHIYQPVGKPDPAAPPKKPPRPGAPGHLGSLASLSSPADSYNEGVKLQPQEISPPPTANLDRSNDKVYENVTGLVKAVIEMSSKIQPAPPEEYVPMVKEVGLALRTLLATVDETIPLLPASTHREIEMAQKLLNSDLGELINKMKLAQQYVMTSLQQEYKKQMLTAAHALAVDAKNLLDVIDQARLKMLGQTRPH"}, "PKN2 (human)": {"target": "PKN2 (human) (UniProt Q16513)"}, "PAK3 (human)": {"target": "PAK3 (human) (UniProt O75914)"}, "FGFR2 (human)": {"target": "FGFR2 (human) (UniProt P21802)"}, "MAPK11 (human)": {"target": "MAPK11 (human) (UniProt Q15759)"}, "CAMKK2 (human)": {"target": "CAMKK2 (human) (UniProt Q96RR4)"}, "MYLK2 (human)": {"target": "MYLK2 (human) (UniProt Q9H1R3)"}, "CDK7 CCNH MNAT1 (human)": {"target": "CDK7 CCNH MNAT1 (human) (UniProt P50613+P51948+P51946)"}, "CDK9 CCNK (human)": {"target": "CDK9 CCNK (human) (UniProt O75909+P50750)"}, "DYRK2 (human)": {"target": "DYRK2 (human) (UniProt Q92630)", "sequence (Q92630 whole entry, looked up)": "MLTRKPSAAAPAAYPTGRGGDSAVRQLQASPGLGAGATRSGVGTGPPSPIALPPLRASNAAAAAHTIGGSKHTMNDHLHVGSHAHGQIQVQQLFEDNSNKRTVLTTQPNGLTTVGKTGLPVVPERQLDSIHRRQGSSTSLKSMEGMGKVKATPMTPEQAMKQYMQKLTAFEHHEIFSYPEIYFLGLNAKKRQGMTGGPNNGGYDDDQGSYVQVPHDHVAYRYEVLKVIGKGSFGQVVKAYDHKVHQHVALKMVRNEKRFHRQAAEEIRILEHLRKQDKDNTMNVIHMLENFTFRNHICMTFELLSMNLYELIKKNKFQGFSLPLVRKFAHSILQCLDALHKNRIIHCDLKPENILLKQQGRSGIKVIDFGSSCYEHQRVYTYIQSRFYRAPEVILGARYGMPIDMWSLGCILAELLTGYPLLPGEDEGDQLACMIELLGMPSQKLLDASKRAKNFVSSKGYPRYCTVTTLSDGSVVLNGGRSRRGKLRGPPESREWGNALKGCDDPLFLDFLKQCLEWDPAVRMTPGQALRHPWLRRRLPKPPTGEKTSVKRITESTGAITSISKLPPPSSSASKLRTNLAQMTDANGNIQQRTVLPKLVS"}, "CDK1 CCNB1 (human)": {"target": "CDK1 CCNB1 (human) (UniProt P06493+P14635)"}, "TGFBR2 (human)": {"target": "TGFBR2 (human) (UniProt P37173)"}, "TSSK2 (human)": {"target": "TSSK2 (human) (UniProt Q96PF2)"}, "CAMK1 (human)": {"target": "CAMK1 (human) (UniProt Q14012)", "sequence (Q14012 whole entry, looked up)": "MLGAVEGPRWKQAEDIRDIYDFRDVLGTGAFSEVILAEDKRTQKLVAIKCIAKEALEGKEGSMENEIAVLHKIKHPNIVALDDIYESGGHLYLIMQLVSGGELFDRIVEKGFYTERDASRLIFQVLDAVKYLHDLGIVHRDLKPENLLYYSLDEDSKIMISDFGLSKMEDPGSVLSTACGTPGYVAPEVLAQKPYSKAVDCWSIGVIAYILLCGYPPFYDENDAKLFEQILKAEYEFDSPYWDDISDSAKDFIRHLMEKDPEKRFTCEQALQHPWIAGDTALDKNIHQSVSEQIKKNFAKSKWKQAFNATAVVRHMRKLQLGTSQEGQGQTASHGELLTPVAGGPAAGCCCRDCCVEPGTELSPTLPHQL"}, "CDK2 CCNA2 (human)": {"target": "CDK2 CCNA2 (human) (UniProt P24941+P20248)", "sequence (P20248 whole entry, looked up, other chains not shown)": "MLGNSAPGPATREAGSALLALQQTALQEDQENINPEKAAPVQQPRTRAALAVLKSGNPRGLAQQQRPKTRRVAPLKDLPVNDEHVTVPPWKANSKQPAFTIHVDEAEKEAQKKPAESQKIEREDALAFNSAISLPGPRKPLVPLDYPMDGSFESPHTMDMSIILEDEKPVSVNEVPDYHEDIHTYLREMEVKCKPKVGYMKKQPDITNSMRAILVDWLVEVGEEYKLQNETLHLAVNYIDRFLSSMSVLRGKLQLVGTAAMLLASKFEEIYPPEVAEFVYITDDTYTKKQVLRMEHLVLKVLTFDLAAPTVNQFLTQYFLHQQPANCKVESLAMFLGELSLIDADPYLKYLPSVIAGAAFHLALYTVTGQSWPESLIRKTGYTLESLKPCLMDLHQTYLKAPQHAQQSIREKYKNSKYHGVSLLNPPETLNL"}, "MAP3K14 (human)": {"target": "MAP3K14 (human) (UniProt Q99558)", "sequence (Q99558 whole entry, looked up)": "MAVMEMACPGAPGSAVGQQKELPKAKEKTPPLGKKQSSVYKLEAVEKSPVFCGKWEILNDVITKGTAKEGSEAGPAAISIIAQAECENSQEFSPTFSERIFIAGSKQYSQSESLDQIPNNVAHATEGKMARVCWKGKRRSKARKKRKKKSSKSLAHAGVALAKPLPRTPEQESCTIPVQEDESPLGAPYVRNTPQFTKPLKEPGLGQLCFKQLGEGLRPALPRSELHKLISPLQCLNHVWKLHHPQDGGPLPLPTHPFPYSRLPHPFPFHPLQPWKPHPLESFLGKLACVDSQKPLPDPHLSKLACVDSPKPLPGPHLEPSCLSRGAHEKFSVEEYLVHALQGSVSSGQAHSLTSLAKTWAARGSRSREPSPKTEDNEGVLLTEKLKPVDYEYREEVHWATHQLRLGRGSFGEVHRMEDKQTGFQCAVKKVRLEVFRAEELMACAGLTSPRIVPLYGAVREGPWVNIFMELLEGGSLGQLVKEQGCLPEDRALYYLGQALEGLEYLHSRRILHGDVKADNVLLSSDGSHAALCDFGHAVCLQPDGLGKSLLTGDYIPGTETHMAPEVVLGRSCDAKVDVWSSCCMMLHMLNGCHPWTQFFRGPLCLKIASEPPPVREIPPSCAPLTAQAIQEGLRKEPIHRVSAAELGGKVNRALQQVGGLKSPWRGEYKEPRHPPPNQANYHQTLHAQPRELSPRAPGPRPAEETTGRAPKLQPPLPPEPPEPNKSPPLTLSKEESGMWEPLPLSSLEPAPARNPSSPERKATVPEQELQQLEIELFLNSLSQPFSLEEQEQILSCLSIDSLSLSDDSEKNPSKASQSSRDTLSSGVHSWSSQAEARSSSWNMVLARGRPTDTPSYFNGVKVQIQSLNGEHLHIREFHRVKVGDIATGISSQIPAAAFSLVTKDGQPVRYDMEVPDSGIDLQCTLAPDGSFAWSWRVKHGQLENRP"}, "MERTK (human)": {"target": "MERTK (human) (UniProt Q12866)"}, "TNK2 (human)": {"target": "TNK2 (human) (UniProt Q07912)"}, "CSF1R (human)": {"target": "CSF1R (human) (UniProt P07333)"}, "PRKCI (human)": {"target": "PRKCI (human) (UniProt P41743)"}, "TAOK1 (human)": {"target": "TAOK1 (human) (UniProt Q7L7X3)"}, "MAPKAPK3 (human)": {"target": "MAPKAPK3 (human) (UniProt Q16644)"}, "NEK11 (human)": {"target": "NEK11 (human) (UniProt Q8NG66)", "sequence (Q8NG66 whole entry, looked up)": "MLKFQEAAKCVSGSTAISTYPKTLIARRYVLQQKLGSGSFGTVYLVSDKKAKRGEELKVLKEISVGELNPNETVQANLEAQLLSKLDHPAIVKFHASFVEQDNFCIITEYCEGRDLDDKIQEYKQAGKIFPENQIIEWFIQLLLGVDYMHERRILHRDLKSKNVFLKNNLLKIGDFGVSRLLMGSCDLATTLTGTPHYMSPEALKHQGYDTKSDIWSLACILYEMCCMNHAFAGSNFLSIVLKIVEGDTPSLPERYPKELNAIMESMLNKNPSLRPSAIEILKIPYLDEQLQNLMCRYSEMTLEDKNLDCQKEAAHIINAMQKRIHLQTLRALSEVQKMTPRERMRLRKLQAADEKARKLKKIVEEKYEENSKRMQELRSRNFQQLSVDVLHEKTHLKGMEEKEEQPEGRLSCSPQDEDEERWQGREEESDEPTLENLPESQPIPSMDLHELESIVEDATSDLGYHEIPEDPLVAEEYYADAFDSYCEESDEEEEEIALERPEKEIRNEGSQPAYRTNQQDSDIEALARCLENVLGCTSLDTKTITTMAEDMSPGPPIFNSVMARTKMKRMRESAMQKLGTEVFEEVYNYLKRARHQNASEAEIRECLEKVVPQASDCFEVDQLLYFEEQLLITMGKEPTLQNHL"}, "RIPK2 (human)": {"target": "RIPK2 (human) (UniProt O43353)"}, "CDK5 CDK5R1 p35 (human)": {"target": "CDK5 CDK5R1 p35 (human) (UniProt Q00535+Q15078)"}, "ROCK1 (human)": {"target": "ROCK1 (human) (UniProt Q13464)"}, "PRKCE (human)": {"target": "PRKCE (human) (UniProt Q02156)"}, "ERBB4 (human)": {"target": "ERBB4 (human) (UniProt Q15303)"}, "TTK (human)": {"target": "TTK (human) (UniProt P33981)"}, "IRAK1 (human)": {"target": "IRAK1 (human) (UniProt P51617)"}, "MARK1 (human)": {"target": "MARK1 (human) (UniProt Q9P0L2)"}, "CDK6 CCND3 (human)": {"target": "CDK6 CCND3 (human) (UniProt P30281+Q00534)"}, "PKN1 (human)": {"target": "PKN1 (human) (UniProt Q16512)"}, "PDGFRB (human)": {"target": "PDGFRB (human) (UniProt P09619)"}, "AURKA (human)": {"target": "AURKA (human) (UniProt O14965)"}, "GRK7 (human)": {"target": "GRK7 (human) (UniProt Q8WTQ7)"}, "MAP3K10 (human)": {"target": "MAP3K10 (human) (UniProt Q02779)"}, "MAPKAPK5 (human)": {"target": "MAPKAPK5 (human) (UniProt Q8IW41)"}}, "data": [{"smiles": "CN(C)S(=O)(=O)c1ccc2c(c1)/C(=C/c1cc3c([nH]1)CCCC3)C(=O)N2", "values": [{"measurement": "residual activity", "setting": "CDC42BPA (human)", "result": 92.3, "unit": "%"}, {"measurement": "residual activity", "setting": "EPHB1 (human)", "result": 82.8, "unit": "%"}, {"measurement": "residual activity", "setting": "MAP3K5 (human)", "result": 106, "unit": "%"}, {"measurement": "residual activity", "setting": "PTK2 (human)", "result": 33.1, "unit": "%"}, {"measurement": "residual activity", "setting": "PKN2 (human)", "result": 84.3, "unit": "%"}, {"measurement": "residual activity", "setting": "PAK3 (human)", "result": 97.6, "unit": "%"}, {"measurement": "residual activity", "setting": "FGFR2 (human)", "result": 49.3, "unit": "%"}, {"measurement": "residual activity", "setting": "MAPK11 (human)", "result": 108, "unit": "%"}, {"measurement": "residual activity", "setting": "CAMKK2 (human)", "result": 27.3, "unit": "%"}, {"measurement": "residual activity", "setting": "MYLK2 (human)", "result": 97.9, "unit": "%"}, {"measurement": "residual activity", "setting": "CDK7 CCNH MNAT1 (human)", "result": 76.4, "unit": "%"}, {"measurement": "residual activity", "setting": "CDK9 CCNK (human)", "result": 96.9, "unit": "%"}, {"measurement": "residual activity", "setting": "DYRK2 (human)", "result": 103, "unit": "%"}, {"measurement": "residual activity", "setting": "CDK1 CCNB1 (human)", "result": 75.4, "unit": "%"}, {"measurement": "residual activity", "setting": "TGFBR2 (human)", "result": 129, "unit": "%"}, {"measurement": "residual activity", "setting": "TSSK2 (human)", "result": 91.8, "unit": "%"}, {"measurement": "residual activity", "setting": "CAMK1 (human)", "result": 107, "unit": "%"}, {"measurement": "residual activity", "setting": "CDK2 CCNA2 (human)", "result": 90.6, "unit": "%"}, {"measurement": "residual activity", "setting": "MAP3K14 (human)", "result": 94.6, "unit": "%"}, {"measurement": "residual activity", "setting": "MERTK (human)", "result": 20.9, "unit": "%"}, {"measurement": "residual activity", "setting": "TNK2 (human)", "result": 12.6, "unit": "%"}, {"measurement": "residual activity", "setting": "CSF1R (human)", "result": 37.2, "unit": "%"}, {"measurement": "residual activity", "setting": "PRKCI (human)", "result": 95.9, "unit": "%"}, {"measurement": "residual activity", "setting": "TAOK1 (human)", "result": 85.8, "unit": "%"}, {"measurement": "residual activity", "setting": "MAPKAPK3 (human)", "result": 100, "unit": "%"}, {"measurement": "residual activity", "setting": "NEK11 (human)", "result": 82.5, "unit": "%"}, {"measurement": "residual activity", "setting": "RIPK2 (human)", "result": 88.9, "unit": "%"}, {"measurement": "residual activity", "setting": "CDK5 CDK5R1 p35 (human)", "result": 76.9, "unit": "%"}, {"measurement": "residual activity", "setting": "ROCK1 (human)", "result": 95.2, "unit": "%"}, {"measurement": "residual activity", "setting": "PRKCE (human)", "result": 94.6, "unit": "%"}, {"measurement": "residual activity", "setting": "ERBB4 (human)", "result": 106, "unit": "%"}, {"measurement": "residual activity", "setting": "TTK (human)", "result": 89.7, "unit": "%"}, {"measurement": "residual activity", "setting": "IRAK1 (human)", "result": 5.59, "unit": "%"}, {"measurement": "residual activity", "setting": "MARK1 (human)", "result": 54.6, "unit": "%"}, {"measurement": "residual activity", "setting": "CDK6 CCND3 (human)", "result": 84.2, "unit": "%"}, {"measurement": "residual activity", "setting": "PKN1 (human)", "result": 91.2, "unit": "%"}, {"measurement": "residual activity", "setting": "PDGFRB (human)", "result": 96.5, "unit": "%"}, {"measurement": "residual activity", "setting": "AURKA (human)", "result": 16.1, "unit": "%"}, {"measurement": "residual activity", "setting": "GRK7 (human)", "result": 82.3, "unit": "%"}, {"measurement": "residual activity", "setting": "MAP3K10 (human)", "result": 99.1, "unit": "%"}, {"measurement": "residual activity", "setting": "MAPKAPK5 (human)", "result": 99.8, "unit": "%"}]}]}
